Measured values reported in patent publication US8273769B2, “Phenoxy acetic acid derivatives” (Merck Serono SA, priority 2009, dated 2012).

Each compound was assayed against T1, CRTH2 (Homo sapiens, UniProt Q9Y5Y4) (assay: Radioligand binding Scintillation Proximity Assay ([3H]PGD2, hCRTH2-CHO cell membranes)). Conditions: 1.5 nM [3H]PGD2, hCRTH2-CHO cell membranes, SPA.
T1 sequence (Q9Y5Y4 1-395): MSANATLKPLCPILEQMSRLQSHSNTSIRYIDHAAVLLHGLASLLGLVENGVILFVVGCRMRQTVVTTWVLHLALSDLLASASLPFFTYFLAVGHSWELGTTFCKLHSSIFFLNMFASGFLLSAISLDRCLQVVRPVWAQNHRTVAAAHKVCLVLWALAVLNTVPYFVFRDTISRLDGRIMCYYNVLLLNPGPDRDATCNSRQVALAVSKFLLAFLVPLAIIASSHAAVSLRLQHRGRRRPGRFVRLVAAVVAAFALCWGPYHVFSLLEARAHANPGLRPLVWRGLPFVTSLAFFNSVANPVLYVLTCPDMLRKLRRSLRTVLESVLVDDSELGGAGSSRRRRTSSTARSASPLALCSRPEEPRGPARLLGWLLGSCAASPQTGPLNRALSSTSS
Parameters: host or cells: CHO cells
In short: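 SPA competition binding at room temperature, 90 min with agitation: 1.5 nM [3H]PGD2, 10-50 μg/ml hCRTH2-CHO membrane protein, WGA SPA beads, HEPES pH 7.4 with 10 mM MnCl2, 1% DMSO. Non-specific binding defined with 10 μM PGD2; scintillation counting.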

Row | IC50 [nM] | Structure (SMILES)
1 | 154 | CS(=O)(=O)c1ccc(C#Cc2cc(Cl)ccc2OCC(=O)O)cc1 [Example 90, (4-chloro-2-{[4-(methylsulfonyl)phenyl]ethynyl}phenoxy)acetic acid]
2 | 267 | O=C(O)COc1ccc(Cl)cc1C#Cc1ccc(Cl)s1 [Example 10, {4-chloro-2-[(5-chloro-2-thienyl)ethynyl]phenoxy}acetic acid]
3 | 6 | CCCCN(C)S(=O)(=O)c1ccc(C)c(C#Cc2cc(Cl)ccc2OCC(=O)O)c1 [Example 111, {2-[(5-{[butyl(methyl)amino]sulfonyl}-2-methylphenyl)ethynyl]-4-chlorophenoxy}acetic acid]
4 | 1770 | Cn1ccnc1C#Cc1cc(Cl)ccc1OCC(=O)O [Example 11, {4-chloro-2-[(1-methyl-1H-imidazol-2-yl)ethynyl]phenoxy}acetic acid]
5 | 34 | CC1(C)C(=O)c2ccc(C#Cc3cc(Cl)ccc3OCC(=O)O)cc2S1(=O)=O [Example 158, {4-chloro-2-[(2,2-dimethyl-1,1-dioxido-3-oxo-2,3-dihydro-1-benzothien-6-yl)ethynyl]phenoxy}acetic acid]
6 | 36 | O=C(O)COc1ccc(Cl)cc1C#Cc1cccc(S(=O)(=O)CCCO)c1 [Example 19, [4-chloro-2-({3-[(3-hydroxypropyl)sulfonyl]phenyl}ethynyl)phenoxy]acetic acid]
7 | 5 | Cc1ccc(S(=O)(=O)N2CCC2)cc1C#Cc1cc(Cl)ccc1OCC(=O)O [Example 123, (2-{[5-(azetidin-1-ylsulfonyl)-2-methylphenyl]ethynyl}-4-chlorophenoxy)acetic acid]
8 | 452 | Cc1ccc(S(=O)(=O)N(C)CCN(C)C)cc1C#Cc1cc(Cl)ccc1OCC(=O)O [Example 122, {4-chloro-2-[(5-{[[2-(dimethylamino)ethyl](methyl)amino]sulfonyl}-2-methylphenyl)ethynyl]phenoxy}acetic acid]
9 | 75 | CC(C)S(=O)(=O)c1cc(C#Cc2cc(Cl)ccc2OCC(=O)O)ccc1C(=O)N(C)C [Example 164, (4-chloro-2-{[4-[(dimethylamino)carbonyl]-3-(isopropylsulfonyl)phenyl]ethynyl}phenoxy)acetic acid]
10 | 364 | CN(c1cncc(C#Cc2cc(C#N)ccc2OCC(=O)O)c1)S(C)(=O)=O [Example 72, [4-cyano-2-({5-[methyl(methylsulfonyl)amino]pyridin-3-yl}ethynyl)phenoxy]acetic acid]
11 | 91 | O=C(O)COc1ccc(Cl)cc1C#Cc1ccc(Cl)cc1 [Example 2, {4-chloro-2-[(4-chlorophenyl)ethynyl]phenoxy}acetic acid]
12 | 79 | CCCS(=O)(=O)c1cccc(C#Cc2cc(F)ccc2OCC(=O)O)c1 [Example 99, (4-fluoro-2-{[3-(propylsulfonyl)phenyl]ethynyl}phenoxy)acetic acid]
13 | 89 | O=C(O)COc1ccc(Cl)cc1C#Cc1cc(CO)ccc1F [Example 25, (4-chloro-2-{[2-fluoro-5-(hydroxymethyl)phenyl]ethynyl}phenoxy)acetic acid]
14 | 111 | O=C(O)COc1ccc(Cl)cc1C#Cc1cccc(C(F)(F)F)c1 [Example 7, (4-chloro-2-{[3-(trifluoromethyl)phenyl]ethynyl}phenoxy)acetic acid]
15 | 75 | CS(=O)(=O)c1cncc(C#Cc2cc(Cl)ccc2OCC(=O)O)c1 [Example 36, (4-chloro-2-{[5-(methylsulfonyl)pyridin-3-yl]ethynyl}phenoxy)acetic acid]
16 | 150 | Cc1ccc(N(C)S(C)(=O)=O)cc1C#Cc1cc(Cl)ccc1OCC(=O)O [Example 138, [4-chloro-2-({2-methyl-5-[methyl(methylsulfonyl)amino]phenyl}ethynyl)phenoxy]acetic acid]
17 | 70 | CCCS(=O)(=O)c1cccc(C#Cc2c(Cl)cccc2OCC(=O)O)c1 [Example 74, (3-chloro-2-{[3-(propylsulfonyl)phenyl]ethynyl}phenoxy)acetic acid]
18 | 102 | O=C(O)COc1ccc2ccccc2c1C#Cc1cccc(O)c1 [Example 147, ({1-[(3-hydroxyphenyl)ethynyl]-2-naphthyl}oxy)acetic acid]
19 | 5 | CCCN(C)S(=O)(=O)c1ccc(C)c(C#Cc2cc(Cl)ccc2OCC(=O)O)c1 [Example 115, {4-chloro-2-[(2-methyl-5-{[methyl(propyl)amino]sulfonyl}phenyl)ethynyl]phenoxy}acetic acid]
20 | 57 | CN(C)C(=O)c1ccc(C#Cc2cc(Cl)ccc2OCC(=O)O)cc1 [Example 125, [4-chloro-2-({4-[(dimethylamino)carbonyl]phenyl}ethynyl)phenoxy]acetic acid]

The next lines start with the compound.

Row | Structure (SMILES) | IC50 [nM]
21 | CCCC(Oc1ccc(Cl)cc1C#Cc1cc(S(=O)(=O)CCC)ccc1C)C(=O)O (stereo not shown) [Example 171, 2-(4-chloro-2-{[2-methyl-5-(propylsulfonyl)phenyl]ethynyl}phenoxy)pentanoic acid] | 66
22 | CCC[S+]([O-])c1ccc(C)c(C#Cc2cc(Cl)ccc2OCC(=O)O)c1 (stereo not shown) [Example 149, (4-chloro-2-{[2-methyl-5-(propylsulfinyl)phenyl]ethynyl}phenoxy)acetic acid] | 11
23 | CCCS(=O)(=O)c1cc(C#Cc2cc(Cl)ccc2OCC(=O)O)c(C)cc1NC(C)=O [Example 153, (2-{[4-(acetylamino)-2-methyl-5-(propylsulfonyl)phenyl]ethynyl}-4-chlorophenoxy)acetic acid] | 1
24 | O=C(O)COc1ccc(C(F)(F)F)cc1C#Cc1ccccc1Cl [Example 41, [2-[(2-chlorophenyl)ethynyl]-4-(trifluoromethyl)phenoxy]acetic acid] | 15
25 | CC(C)S(=O)(=O)c1cc(C#Cc2cc(Cl)ccc2OCC(=O)O)ccc1C(=O)N1CCOCC1 [Example 167, (4-chloro-2-{[3-(isopropylsulfonyl)-4-(morpholin-4-ylcarbonyl)phenyl]ethynyl}phenoxy)acetic acid] | 100
26 | COc1cccc(-c2ccc(C#Cc3cc(Cl)ccc3OCC(=O)O)cc2S(C)(=O)=O)c1 [Example 142] | 9
27 | O=C(O)COc1ccc(Cl)cc1C#Cc1ccc(C(=O)N2CCOCC2)cc1 [Example 124, (4-chloro-2-{[4-(morpholin-4-ylcarbonyl)phenyl]ethynyl}phenoxy)acetic acid] | 106
28 | CS(=O)(=O)c1ccc(N2CCCCC2)c(C#Cc2cc(Cl)ccc2OCC(=O)O)c1 [Example 57, (4-chloro-2-{[5-(methylsulfonyl)-2-piperidin-1-ylphenyl]ethynyl}phenoxy)acetic acid] | 280
29 | CCCS(=O)(=O)c1ccc(C)c(C#Cc2cc(Cl)ccc2OC(CC(C)C)C(=O)O)c1 (stereo not shown) [Example 172, 2-(4-chloro-2-{[2-methyl-5-(propylsulfonyl)phenyl]ethynyl}phenoxy)-4-methylpentanoic acid] | 60
30 | CCCS(=O)(=O)c1cccc(C#Cc2cc(-c3sc(C)nc3C)ccc2OCC(=O)O)c1 [Example 132, (4-(2,4-dimethyl-1,3-thiazol-5-yl)-2-{[3-(propylsulfonyl)phenyl]ethynyl}phenoxy)acetic acid] | 68
31 | CCCCN(C)C(=O)c1ccc(C#Cc2cc(Cl)ccc2OCC(=O)O)cc1S(=O)(=O)C(C)C [Example 163, (2-{[4-{[butyl(methyl)amino]carbonyl}-3-(isopropylsulfonyl)phenyl]ethynyl}-4-chlorophenoxy)acetic acid] | 32
32 | CCNS(=O)(=O)c1ccc(C)c(C#Cc2cc(Cl)ccc2OCC(=O)O)c1 [Example 16, [4-chloro-2-({5-[(ethylamino)sulfonyl]-2-methylphenyl}ethynyl)phenoxy]acetic acid] | 6
33 | COc1ccc(-c2ccc(C#Cc3cc(Cl)ccc3OCC(=O)O)cc2S(C)(=O)=O)cc1 [Example 141, (4-chloro-2-{[4′-methoxy-2-(methylsulfonyl)biphenyl-4-yl]ethynyl}phenoxy)acetic acid] | 8
34 | O=C(O)COc1ccc(Cl)cc1C#Cc1ccccc1 [Example 1, [4-chloro-2-(phenylethynyl)phenoxy]acetic acid] | 76
35 | Cc1ncc(S(=O)(=O)N(C)C)cc1C#Cc1cc(Cl)ccc1OCC(=O)O [Example 139, [4-chloro-2-({5-[(dimethylamino)sulfonyl]-2-methylpyridin-3-yl}ethynyl)phenoxy]acetic acid] | 51
36 | Cc1ccc(OCC(=O)O)c(C#Cc2ccccc2Cl)c1 [Example 27, {2-[(2-chlorophenyl)ethynyl]-4-methylphenoxy}acetic acid] | 346
37 | Cc1ccc(S(=O)(=O)N2CCCCC2)cc1C#Cc1cc(Cl)ccc1OCC(=O)O [Example 88, (4-chloro-2-{[2-methyl-5-(piperidin-1-ylsulfonyl)phenyl]ethynyl}phenoxy)acetic acid] | 7
38 | CCCS(=O)(=O)c1ccc(C)c(C#Cc2cc(Cl)ccc2OC(CC)C(=O)O)c1 (stereo not shown) [Example 170, 2-(4-chloro-2-{[2-methyl-5-(propylsulfonyl)phenyl]ethynyl}phenoxy)butanoic acid] | 35
39 | O=C(O)COc1ccc(Cl)cc1C#Cc1cccnc1 [Example 14, [4-chloro-2-(pyridin-3-ylethynyl)phenoxy]acetic acid] | 146
40 | CCCS(=O)(=O)c1cccc(C#Cc2c(OCC(=O)O)ccc3ccccc23)c1 [Example 148, [(1-{[3-(propylsulfonyl)phenyl]ethynyl}-2-naphthyl)oxy]acetic acid] | 56
